Data on seven molecules can be found in ChEMBL document CHEMBL1138241, “First gallamine-tacrine hybrid: design and characterization at cholinesterases and the M2 muscarinic receptor” (J Med Chem, 2007).

Broadly, the IC50 is the midpoint of a concentration-inhibition curve. By EC50 is commonly meant the concentration at which the effect is half-maximal. High values mean a less potent agent, low ones a more potent agent.

Sequence of Acetylcholinesterase (Homo sapiens, UniProt P22303) (P22303 whole entry): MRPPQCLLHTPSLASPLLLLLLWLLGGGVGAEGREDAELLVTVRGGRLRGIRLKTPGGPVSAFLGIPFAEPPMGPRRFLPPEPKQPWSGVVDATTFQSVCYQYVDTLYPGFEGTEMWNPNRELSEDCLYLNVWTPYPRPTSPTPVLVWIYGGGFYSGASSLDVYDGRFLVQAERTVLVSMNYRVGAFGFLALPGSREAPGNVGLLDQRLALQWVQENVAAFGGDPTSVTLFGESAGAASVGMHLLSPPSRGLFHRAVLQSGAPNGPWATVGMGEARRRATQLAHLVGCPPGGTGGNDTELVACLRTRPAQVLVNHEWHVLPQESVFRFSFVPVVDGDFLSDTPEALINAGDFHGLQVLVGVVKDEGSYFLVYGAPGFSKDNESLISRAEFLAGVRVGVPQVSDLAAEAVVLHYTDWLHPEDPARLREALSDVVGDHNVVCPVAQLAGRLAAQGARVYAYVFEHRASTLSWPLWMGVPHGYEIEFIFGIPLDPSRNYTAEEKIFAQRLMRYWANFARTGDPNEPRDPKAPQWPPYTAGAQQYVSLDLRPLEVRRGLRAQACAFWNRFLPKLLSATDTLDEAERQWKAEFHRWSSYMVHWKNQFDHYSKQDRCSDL

The target in one assay is Acetylcholinesterase (Torpedo californica, UniProt P04058).
Sequence of Acetylcholinesterase (Torpedo californica, UniProt P04058) (P04058 whole entry): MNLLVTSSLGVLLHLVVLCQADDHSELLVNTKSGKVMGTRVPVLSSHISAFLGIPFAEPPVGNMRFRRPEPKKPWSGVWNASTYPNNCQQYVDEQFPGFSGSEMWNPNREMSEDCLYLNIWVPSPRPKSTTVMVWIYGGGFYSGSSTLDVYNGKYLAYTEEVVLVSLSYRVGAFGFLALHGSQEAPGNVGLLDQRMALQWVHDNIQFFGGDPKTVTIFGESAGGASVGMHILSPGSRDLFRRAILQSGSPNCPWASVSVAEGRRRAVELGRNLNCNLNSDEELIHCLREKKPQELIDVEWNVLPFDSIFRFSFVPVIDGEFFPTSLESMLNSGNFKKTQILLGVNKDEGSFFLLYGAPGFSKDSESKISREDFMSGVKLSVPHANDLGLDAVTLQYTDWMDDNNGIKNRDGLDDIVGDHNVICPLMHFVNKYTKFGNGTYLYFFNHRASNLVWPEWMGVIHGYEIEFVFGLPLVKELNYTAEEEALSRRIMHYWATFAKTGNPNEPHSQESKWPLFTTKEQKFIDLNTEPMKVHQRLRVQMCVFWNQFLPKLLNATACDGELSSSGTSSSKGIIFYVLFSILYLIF
Description: Inhibition of Torpedo californica Acetylcholinesterase
As for `CC[N+](CC)(CC)CCOc1cc(OCC[N+](CC)(CC)CC)c(C(=O)NCCCCCC(=O)NNc2c3c(nc4cc(Cl)ccc24)CCCC3)cc1OCC[N+](CC)(CC)CC`, half-maximal inhibition (IC50) was put at 0.334 µM.
In turn, `CC[N+](CC)(CC)CCOc1cc(OCC[N+](CC)(CC)CC)cc(C(=O)NCCCCCC(=O)NNc2c3c(nc4cc(Cl)ccc24)CCCC3)c1` registered an IC50 of 0.301 µM.
Molecule `CC[N+](CC)(CC)CCOc1cc(OCC[N+](CC)(CC)CC)cc(C(=O)NCCCCCC(=O)NNc2c3c(nc4ccccc24)CCCC3)c1` had a half-inhibitory concentration (IC50) of 0.00859 µM.
Still for that read-out and setting: the same measure for `CC[N+](CC)(CC)CCOc1ccc(C(=O)NCCCCCC(=O)NNc2c3c(nc4cc(Cl)ccc24)CCCC3)cc1`: 0.127 µM.
On the same count and under the same terms, the same measure for `CC[N+](CC)(CC)CCOc1cc(OCC[N+](CC)(CC)CC)c(C(=O)NCCCCCC(=O)NNc2c3c(nc4ccccc24)CCCC3)cc1OCC[N+](CC)(CC)CC`: 0.0277 µM; for `CC[N+](CC)(CC)CCOc1ccc(C(=O)NCCCCCC(=O)NNc2c3c(nc4ccccc24)CCCC3)cc1`: 0.0176 µM.

For a further assay, the target named is Acetylcholinesterase (Electrophorus electricus, UniProt O42275).
Sequence of Acetylcholinesterase (Electrophorus electricus, UniProt O42275) (O42275 whole entry): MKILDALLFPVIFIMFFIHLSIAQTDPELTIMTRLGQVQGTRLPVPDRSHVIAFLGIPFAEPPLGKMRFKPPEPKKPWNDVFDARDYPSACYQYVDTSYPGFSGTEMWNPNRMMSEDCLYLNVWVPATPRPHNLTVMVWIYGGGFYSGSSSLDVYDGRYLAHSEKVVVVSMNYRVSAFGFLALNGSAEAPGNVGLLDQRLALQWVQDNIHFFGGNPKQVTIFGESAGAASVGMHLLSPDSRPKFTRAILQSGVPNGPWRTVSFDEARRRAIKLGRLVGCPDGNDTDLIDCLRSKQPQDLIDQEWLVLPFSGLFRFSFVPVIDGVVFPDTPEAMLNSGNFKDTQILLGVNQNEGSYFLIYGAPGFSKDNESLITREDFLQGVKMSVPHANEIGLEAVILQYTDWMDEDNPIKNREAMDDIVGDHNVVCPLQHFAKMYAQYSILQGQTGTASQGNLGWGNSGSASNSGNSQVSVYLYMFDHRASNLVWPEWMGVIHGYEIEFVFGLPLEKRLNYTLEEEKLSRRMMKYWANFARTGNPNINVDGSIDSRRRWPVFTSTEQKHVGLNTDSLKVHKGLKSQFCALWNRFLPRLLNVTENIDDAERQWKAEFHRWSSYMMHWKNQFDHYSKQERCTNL
Description: Inhibition of Electrophorus electricus Acetylcholinesterase
In the case of `CC[N+](CC)(CC)CCOc1cccc(OCC[N+](CC)(CC)CC)c1OCC[N+](CC)(CC)CC` [GALLAMINE], it took 3150 µM to reach half-maximal inhibition (IC50).
`CC[N+](CC)(CC)CCOc1cc(OCC[N+](CC)(CC)CC)c(C(=O)NCCCCCC(=O)NNc2c3c(nc4cc(Cl)ccc24)CCCC3)cc1OCC[N+](CC)(CC)CC` yielded a 50% inhibitory concentration (IC50) of 0.09 µM.
`CC[N+](CC)(CC)CCOc1cc(OCC[N+](CC)(CC)CC)cc(C(=O)NCCCCCC(=O)NNc2c3c(nc4cc(Cl)ccc24)CCCC3)c1`: the IC50 was 0.048 µM.
As to `CC[N+](CC)(CC)CCOc1cc(OCC[N+](CC)(CC)CC)cc(C(=O)NCCCCCC(=O)NNc2c3c(nc4ccccc24)CCCC3)c1`, it took 0.00128 µM to reach half-maximal inhibition (IC50).
In the case of `CC[N+](CC)(CC)CCOc1ccc(C(=O)NCCCCCC(=O)NNc2c3c(nc4cc(Cl)ccc24)CCCC3)cc1`, the IC50 turned out to be 0.026 µM.
With `CC[N+](CC)(CC)CCOc1ccc(C(=O)NCCCCCC(=O)NNc2c3c(nc4ccccc24)CCCC3)cc1`, the IC50 was found to be 0.000467 µM.

The next assay has as its target T1, Muscarinic acetylcholine receptor M2 (Sus scrofa, UniProt P06199).
T1 sequence (P06199 whole entry): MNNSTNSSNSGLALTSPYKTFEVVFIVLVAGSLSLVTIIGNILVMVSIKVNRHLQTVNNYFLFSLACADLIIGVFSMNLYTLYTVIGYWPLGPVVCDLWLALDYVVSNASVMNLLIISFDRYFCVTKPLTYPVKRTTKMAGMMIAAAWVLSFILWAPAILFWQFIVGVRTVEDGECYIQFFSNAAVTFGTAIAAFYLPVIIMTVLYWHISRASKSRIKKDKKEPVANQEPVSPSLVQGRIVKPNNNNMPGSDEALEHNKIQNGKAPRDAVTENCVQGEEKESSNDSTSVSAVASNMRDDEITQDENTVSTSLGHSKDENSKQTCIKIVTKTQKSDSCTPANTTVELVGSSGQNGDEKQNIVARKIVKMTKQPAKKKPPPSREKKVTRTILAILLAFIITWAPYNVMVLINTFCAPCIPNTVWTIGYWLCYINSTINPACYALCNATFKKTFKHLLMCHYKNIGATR
Description: Inhibition of [3H]NMS dissociation from porcine muscarinic M2 receptor
For the molecule `CC[N+](CC)(CC)CCOc1cccc(OCC[N+](CC)(CC)CC)c1OCC[N+](CC)(CC)CC` [GALLAMINE], the concentration for a half-maximal effect (EC50) came out at 0.13 µM.
In the case of `CC[N+](CC)(CC)CCOc1cc(OCC[N+](CC)(CC)CC)c(C(=O)NCCCCCC(=O)NNc2c3c(nc4cc(Cl)ccc24)CCCC3)cc1OCC[N+](CC)(CC)CC`, the EC50 came out at 0.001 µM. Against the preceding molecule, the EC50 is about 130-fold lower.
Molecule `CC[N+](CC)(CC)CCOc1cc(OCC[N+](CC)(CC)CC)cc(C(=O)NCCCCCC(=O)NNc2c3c(nc4cc(Cl)ccc24)CCCC3)c1` showed a 50% effective concentration (EC50) of 0.0015 µM.
Still for that read-out and setting: the same measure for `CC[N+](CC)(CC)CCOc1cc(OCC[N+](CC)(CC)CC)cc(C(=O)NCCCCCC(=O)NNc2c3c(nc4ccccc24)CCCC3)c1`: 0.0009 µM; for `CC[N+](CC)(CC)CCOc1ccc(C(=O)NCCCCCC(=O)NNc2c3c(nc4cc(Cl)ccc24)CCCC3)cc1`: 0.005 µM; for `CC[N+](CC)(CC)CCOc1cc(OCC[N+](CC)(CC)CC)c(C(=O)NCCCCCC(=O)NNc2c3c(nc4ccccc24)CCCC3)cc1OCC[N+](CC)(CC)CC`: 0.0014 µM.
`CC[N+](CC)(CC)CCOc1ccc(C(=O)NCCCCCC(=O)NNc2c3c(nc4ccccc24)CCCC3)cc1` showed a half-maximal effective concentration (EC50) of 0.0013 µM.

A further assay concerns the target Acetylcholinesterase (Homo sapiens, UniProt P22303).
Description: Inhibition of human Acetylcholinesterase
The molecule `CC[N+](CC)(CC)CCOc1cccc(OCC[N+](CC)(CC)CC)c1OCC[N+](CC)(CC)CC` [GALLAMINE] returned a concentration for half-maximal inhibition (IC50) of 2110 µM.
Same read-out and setting: the same measure for `CC[N+](CC)(CC)CCOc1cc(OCC[N+](CC)(CC)CC)c(C(=O)NCCCCCC(=O)NNc2c3c(nc4cc(Cl)ccc24)CCCC3)cc1OCC[N+](CC)(CC)CC`: 0.00654 µM; for `CC[N+](CC)(CC)CCOc1cc(OCC[N+](CC)(CC)CC)cc(C(=O)NCCCCCC(=O)NNc2c3c(nc4cc(Cl)ccc24)CCCC3)c1`: 0.00675 µM.
Same read-out and setting: the same measure for `CC[N+](CC)(CC)CCOc1cc(OCC[N+](CC)(CC)CC)cc(C(=O)NCCCCCC(=O)NNc2c3c(nc4ccccc24)CCCC3)c1`: 0.0158 µM; for `CC[N+](CC)(CC)CCOc1ccc(C(=O)NCCCCCC(=O)NNc2c3c(nc4cc(Cl)ccc24)CCCC3)cc1`: 0.00544 µM; for `CC[N+](CC)(CC)CCOc1ccc(C(=O)NCCCCCC(=O)NNc2c3c(nc4ccccc24)CCCC3)cc1`: 0.00761 µM.
